{"source": "patent US20220031700A1", "about": "“Treatment of Acute Respiratory Distress Syndrome (ARDS)” (priority 2020, published 2022)", "key": {"[1]": {"test_system": "mouse model of cytokine storm", "assay": "Evans Blue dye (EBD) assay of lung after intranasal LPS challenge", "format": "in vivo"}, "[2]": {"test_system": "mouse model of cytokine storm", "assay": "Lung Wet/Dry ratio assay after intranasal LPS challenge", "format": "in vivo", "conditions": "LPS 50 μg IN, compared to LPS/Vehicle group", "procedure": "Intranasal administration of LPS: The LPS challenge was carried out according to Ma et al., Inflammation, 2019, 42, 1901-1912.\nCompound dosing: Animals in groups 2-5 were dosed according to the Table 1 for 6 days. On day 7, 1 hour after the last dose, animals were intranasally treated with LPS. Dexamethasone (20 mg/kg PO) was administered 1 hour prior to LPS treatment. Six hours after the instillation of LPS, animals received an IV dose of EBD. Thirty minutes later, animals were sacrificed, and the lungs were collected as previously described.\n(§1) Intranasal administration of LPS: The LPS challenge was carried out according to Ma et al. (2019).\n(§2) Compound dosing: Animals in groups 2-5 were dosed according to the Table 2 for 6 days. Group 3 animals received 6 doses of MLR-1023 QD and a 7th dose 1 hour prior to LPS. Group 4 animals received 6 doses of MLR-1023 QD and Vehicle 1 hour prior to LPS. Group 5 animals received 6 Vehicle doses QD and 1 dose of MLR-1023 1 hour prior to LPS. On day 7, 1 hour after the last dose, animals were intranasally treated with LPS. Six hours after the instillation of LPS, animals received an IV dose of EBD. Thirty minutes later, animals were sacrificed, and the lungs were collected as previously described."}, "IL-6": {"test_system": "IL-6", "assay": "Plasma IL-6 level by ELISA after intranasal LPS challenge", "format": "in vivo, mouse", "conditions": "Example 2; 100 mg/kg IP, all dosing paradigms; comparison to LPS/vehicle group", "procedure": "as §1, §2"}, "TNF-alpha": {"test_system": "TNF-alpha", "assay": "Plasma TNF-alpha level by ELISA after intranasal LPS challenge", "format": "in vivo, mouse", "conditions": "Example 2; 100 mg/kg IP, all dosing paradigms; comparison to LPS/vehicle group", "procedure": "as §1, §2"}, "in vivo": {"assay": "in vivo", "conditions": "mouse"}, "total IgG": {"test_system": "total IgG", "assay": "Serum total IgG by ELISA in experimental influenza model", "conditions": "influenza 6.5 Lg EID50 IN; 100 mg/kg IP QD 12 days; Day 12; compared to influenza-infected/vehicle treated controls"}, "total IgM": {"test_system": "total IgM", "assay": "Serum total IgM by ELISA in experimental influenza model", "conditions": "influenza 6.5 Lg EID50 IN; 100 mg/kg IP QD 12 days; Day 12; compared to influenza-infected/vehicle treated controls"}, "[3]": {"test_system": "Influenza-specific antibody", "assay": "Serum influenza-specific antibody by ELISA in experimental influenza model", "conditions": "influenza 6.5 Lg EID50 IN; 100 mg/kg IP QD 12 days; Day 12; compared to influenza-infected/vehicle treated controls"}}, "note": "“Also recorded” adds a separate entry of the source."}
{"molecule": "Cc1cccc(Oc2cnc(=O)[nH]c2)c1", "note": "[MLR-1023, tolimidone]", "values": [{"measurement": "Evans Blue content in the lung", "setting": "[1]; Example 1, C57Bl/6J male mice, LPS 50 μg IN, MLR-1023 30 and 100 mg/kg IP QD 7 days, last dose 1 hr prior to LPS, dexamethasone 20 mg/kg PO 1 hr prior to LPS, compared to LPS/Vehicle group", "value": "greater than that of dexamethasone and comparable to that of animals that received no LPS; also recorded: significant dose dependent decrease"}, {"measurement": "Evans Blue dye content in the lungs (plasma extravasation)", "setting": "[1]; Example 2, 100 mg/kg IP QD, 6 doses plus acute dose 1 hour before LPS challenge (7×), relative to the 6-dose paradigm", "value": "comparable level of reduced plasma extravasation"}, {"measurement": "Evans Blue dye content in the lungs", "setting": "[1]; Example 2, 100 mg/kg IP QD, 6 doses, vehicle 1 hr prior to LPS (6×), compared to LPS/Vehicle group", "value": "significant decrease"}, {"measurement": "Evans Blue dye content in the lungs (plasma extravasation)", "setting": "[1]; Example 2, 100 mg/kg IP, single dose 1 hr prior to LPS challenge (1×)", "value": "did not yield reduction"}, {"measurement": "wet/dry ratio of the lung", "setting": "[2]; Example 1, C57Bl/6J male mice, MLR-1023 30 and 100 mg/kg IP QD 7 days, last dose 1 hr prior to LPS, dexamethasone 20 mg/kg PO 1 hr prior to LPS", "value": "significant dose dependent decrease"}, {"measurement": "wet/dry ratio of the lung", "setting": "[2]; Example 2, 100 mg/kg IP, all dosing paradigms (7×, 6×, 1×)", "value": "significant decrease"}, {"measurement": "plasma IL-6 concentration", "setting": "IL-6", "value": "did not produce significant effects"}, {"measurement": "plasma TNF-α concentration", "setting": "TNF-alpha", "value": "did not produce significant effects"}, {"measurement": "half-life", "setting": "in vivo", "value": "~1.5", "unit": "h"}, {"measurement": "serum total IgG level", "setting": "total IgG", "value": "did not alter"}, {"measurement": "serum total IgM level", "setting": "total IgM", "value": "did not alter"}, {"measurement": "serum influenza-specific antibody level", "setting": "[3]", "value": "did not alter"}]}
